Tests used:
Assay type in all cases: in vivo
[1] = test system: Johnsongrass (Sorghum halepense, SORHA); test: Pre-emerge greenhouse herbicide test, phytotoxicity rating; conditions: Sorghum halepense, pre-emergence, 336 h, 14 days after application, rating scale 0-100; for pest or weed control at 125 g/ha: Rate 125 g al/ha; for pest or weed control at 500 g/ha: Rate 500 g al/ha
Procedure, shortened: (§1)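 Seeds sown in sandy loam one day before track-sprayer application of acetone solutions at 125–1000 g ai/ha (187 l/ha), then surface-watered to incorporate and bottom-watered. Injury scored visually at 14 days on a 0–100 scale (0 no damage, 100 complete death).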

[2] = test system: barnyardgrass (Echinochloa crusgalli, ECHCG); test: as above; conditions: Echinochloa crus-galli, pre-emergence, 336 h, 14 days after application, rating scale 0-100; for pest or weed control at 125 g/ha: Rate 125 g al/ha; for pest or weed control at 500 g/ha: Rate 500 g al/ha
Procedure, shortened: as §1

[3] = test system: green foxtail (Setaria viridis, SETVI); test: as above; conditions: Setaria viridis, pre-emergence, 336 h, 14 days after application, rating scale 0-100; for pest or weed control at 125 g/ha: Rate 125 g al/ha; for pest or weed control at 500 g/ha: Rate 500 g al/ha
Procedure, shortened: as §1

[4] = test system: ivyleaf morningglory (Ipomoea hederacea, IPOHE); test: as above; conditions: Ipomoea, pre-emergence, 336 h, 14 days after application, rating scale 0-100; for pest or weed control at 125 g/ha: Rate 125 g al/ha; for pest or weed control at 500 g/ha: Rate 500 g al/ha
Procedure, shortened: as §1

[5] = test system: lambsquarters (Chenopodium album, CHEAL); test: as above; conditions: Chenopodium album, pre-emergence, 336 h, 14 days after application, rating scale 0-100; for pest or weed control at 125 g/ha: Rate 125 g al/ha; for pest or weed control at 500 g/ha: Rate 500 g al/ha
Procedure, shortened: as §1

[6] = test system: large crabgrass (Digitaria sanguinalis, DIGSA); test: as above; conditions: Digitaria sanguinalis, pre-emergence, 336 h, 14 days after application, rating scale 0-100; for pest or weed control at 125 g/ha: Rate 125 g al/ha; for pest or weed control at 500 g/ha: Rate 500 g al/ha
Procedure, shortened: as §1

[7] = test system: redroot pigweed (Amaranthus retroflexus, AMARE); test: as above; conditions: Amaranthus retroflexus, pre-emergence, 336 h, 14 days after application, rating scale 0-100; for pest or weed control at 125 g/ha: Rate 125 g al/ha; for pest or weed control at 500 g/ha: Rate 500 g al/ha
Procedure, shortened: as §1

[8] = test system: sicklepod (Cassia obtusifolia, CASOB); test: as above; conditions: Senna obtusifolia, pre-emergence, 336 h, 14 days after application, rating scale 0-100; for pest or weed control at 125 g/ha: Rate 125 g al/ha; for pest or weed control at 500 g/ha: Rate 500 g al/ha
Procedure, shortened: as §1

[9] = test system: velvetleaf (Abutilon theophrasti, ABUTH); test: as above; conditions: Abutilon theophrasti, pre-emergence, 336 h, 14 days after application, rating scale 0-100; for pest or weed control at 125 g/ha: Rate 125 g al/ha; for pest or weed control at 500 g/ha: Rate 500 g al/ha
Procedure, shortened: as §1

[10] = test system: Johnsongrass (Sorghum halepense, SORHA); test: Post-emerge greenhouse herbicide test, phytotoxicity rating; conditions: Sorghum halepense, post-emergence, 336 h, 14 days after application, scale 0-100; for pest or weed control at 63 g/ha: rate 63 g ai/ha; for pest or weed control at 500 g/ha: rate 500 g ai/ha
Procedure, shortened: (§2)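 Plants at the 2-3 leaf stage, sown 8-21 days earlier, were track-sprayed post-emergence with compound in acetone plus 0.25% v/v non-ionic surfactant at 63-1000 g ai/ha (187 l/ha). Damage was rated at 14 days on a 0-100 scale (0 none, 100 all plants dead), for both crop injury and weed control.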

[11] = test system: green foxtail (Setaria viridis, SETVI); test: as above; conditions: Setaria viridis, post-emergence, 336 h, 14 days after application, scale 0-100; for pest or weed control at 63 g/ha: rate 63 g ai/ha; for pest or weed control at 500 g/ha: rate 500 g ai/ha
Procedure, shortened: as §2

[12] = test system: lambsquarters (Chenopodium album, CHEAL); test: as above; conditions: Chenopodium album, post-emergence, 336 h, 14 days after application, scale 0-100; for pest or weed control at 63 g/ha: rate 63 g ai/ha; for pest or weed control at 500 g/ha: rate 500 g ai/ha
Procedure, shortened: as §2

[13] = test system: large crabgrass (Digitaria sanguinalis, DIGSA); test: as above; conditions: Digitaria sanguinalis, post-emergence, 336 h, 14 days after application, scale 0-100; for pest or weed control at 63 g/ha: rate 63 g ai/ha; for pest or weed control at 500 g/ha: rate 500 g ai/ha
Procedure, shortened: as §2

[14] = test system: redroot pigweed (Amaranthus retroflexus, AMARE); test: as above; conditions: Amaranthus retroflexus, post-emergence, 336 h, 14 days after application, scale 0-100; for pest or weed control at 63 g/ha: rate 63 g ai/ha; for pest or weed control at 500 g/ha: rate 500 g ai/ha
Procedure, shortened: as §2

[15] = test system: sicklepod (Cassia obtusifolia, CASOB); test: as above; conditions: Senna obtusifolia, post-emergence, 336 h, 14 days after application, scale 0-100; for pest or weed control at 63 g/ha: rate 63 g ai/ha; for pest or weed control at 500 g/ha: rate 500 g ai/ha
Procedure, shortened: as §2

Row | SMILES | pest or weed control at 125 g/ha [1] | pest or weed control at 500 g/ha [1] | pest or weed control at 125 g/ha [2] | pest or weed control at 500 g/ha [2] | pest or weed control at 125 g/ha [3] | pest or weed control at 500 g/ha [3] | pest or weed control at 125 g/ha [4] | pest or weed control at 500 g/ha [4] | pest or weed control at 125 g/ha [5] | pest or weed control at 500 g/ha [5] | pest or weed control at 125 g/ha [6] | pest or weed control at 500 g/ha [6] | pest or weed control at 125 g/ha [7] | pest or weed control at 500 g/ha [7] | pest or weed control at 125 g/ha [8] | pest or weed control at 500 g/ha [8] | pest or weed control at 125 g/ha [9] | pest or weed control at 500 g/ha [9] | pest or weed control at 63 g/ha [10] | pest or weed control at 500 g/ha [10] | further results
1 | Nn1c(C(F)(F)F)cc(=O)n(-c2cc(Oc3ccccc3[N+](=O)[O-])c(Cl)cc2F)c1=O [Compound 9-21, 1-amino-3-[4-chloro-2-fluoro-5-(2-nitrophenoxy)phenyl]-6-trifluoromethyl-1,2,3,4-tetrahydropyrimidine-2,4-dione] | 90% | 100% | 90% | 100% | 100% | 100% | 60% | 100% | 100% | 100% | 100% | 100% | 100% | 100% | 30% | 90% | 100% | 100% | 60% | 90% | pest or weed control at 63 g/ha [11]: 90%; pest or weed control at 500 g/ha [11]: 100%; pest or weed control at 63 g/ha [12]: 100%; pest or weed control at 500 g/ha [12]: 100%; pest or weed control at 63 g/ha [13]: 30%; pest or weed control at 500 g/ha [13]: 90%; pest or weed control at 63 g/ha [14]: 100%; pest or weed control at 500 g/ha [14]: 100%; pest or weed control at 63 g/ha [15]: 100%; pest or weed control at 500 g/ha [15]: 100%
2 | Nn1c(C(F)(F)F)cc(=O)n(-c2cc(Oc3ccc([N+](=O)[O-])cc3C(F)(F)F)c(Cl)cc2F)c1=O [Compound 9-22, 1-Amino-3-[4-chloro-2-fluoro-5-(4-nitro-2-trifluoromethylphenoxy)phenyl]-6-trifluoromethyl-1,2,3,4-tetrahydropyrimidine-2,4-dione] | 50% | 95% | 50% | 90% | 90% | 100% | 90% | 80% | 100% | 100% | 80% | 100% | 100% | 100% | 30% | 80% | 100% | 100% | 0% | 80% | pest or weed control at 63 g/ha [11]: 10%; pest or weed control at 500 g/ha [11]: 80%; pest or weed control at 63 g/ha [12]: 40%; pest or weed control at 500 g/ha [12]: 100%; pest or weed control at 63 g/ha [13]: 10%; pest or weed control at 500 g/ha [13]: 50%; pest or weed control at 63 g/ha [14]: 100%; pest or weed control at 500 g/ha [14]: 100%; pest or weed control at 63 g/ha [15]: 30%; pest or weed control at 500 g/ha [15]: 70%
3 | Nn1c(C(F)(F)F)cc(=O)n(-c2cc(Oc3cc([N+](=O)[O-])cc(C(F)(F)F)c3)c(Cl)cc2F)c1=O [Compound 9-23, 1-Amino-3-[4-chloro-2-fluoro-5-(3-nitro-5-trifluoromethylphenoxy)phenyl]-6-trifluoromethyl-1,2,3,4-tetrahydropyrimidine-2,4-dione] | 10% | 70% | 10% | 70% | 40% | 100% | 0% | 0% | 95% | 100% | 10% | 95% | 100% | 100% | 0% | 10% | 40% | 100% | 0% | 30% | pest or weed control at 63 g/ha [11]: 0%; pest or weed control at 500 g/ha [11]: 10%; pest or weed control at 63 g/ha [12]: 70%; pest or weed control at 500 g/ha [12]: 95%; pest or weed control at 63 g/ha [13]: 0%; pest or weed control at 500 g/ha [13]: 0%; pest or weed control at 63 g/ha [14]: 85%; pest or weed control at 500 g/ha [14]: 85%; pest or weed control at 63 g/ha [15]: 10%; pest or weed control at 500 g/ha [15]: 30%
4 | Nn1c(C(F)(F)F)cc(=O)n(-c2cc(Oc3ccccc3C(F)(F)F)c(Cl)cc2F)c1=O [Compound 9-24, 1-amino-3-[4-chloro-2-fluoro-5-(2-trifluoromethylphenoxy)phenyl]-6-trifluoromethyl-1,2,3,4-tetrahydropyrimidine-2,4-dione] | 30% | 90% | 60% | 70% | 100% | 100% | 30% | 30% | 100% | 100% | 90% | 100% | 95% | 100% | 30% | 0% | 99% | 100% | 30% | 70% | pest or weed control at 63 g/ha [11]: 70%; pest or weed control at 500 g/ha [11]: 95%; pest or weed control at 63 g/ha [12]: 100%; pest or weed control at 500 g/ha [12]: 100%; pest or weed control at 63 g/ha [13]: 40%; pest or weed control at 500 g/ha [13]: 75%; pest or weed control at 63 g/ha [14]: 100%; pest or weed control at 500 g/ha [14]: 100%; pest or weed control at 63 g/ha [15]: 30%; pest or weed control at 500 g/ha [15]: 80%

From patent US6479435B1, “Diaryl ethers and processes for their preparation and herbicidal and desiccant compositions containing them” (ISK Americas Incorporated, priority 1997, dated 2002)
